Test results as given in the NIST ThermoML archive (doi:10.1016/j.jct.2006.05.008).

Assay: molar heat capacity at constant pressure
Conditions: 101.33 kPa

CCn1cc[n+](C)c1.[Br-] [1-ethyl-3-methylimidazolium bromide]
molar heat capacity at constant pressure [J/K/mol], Small (less than 1 g) adiabatic calorimetry
Conditions | Crystal | Liquid
5 K | 0.322 | –
10 K | 3.336 | –
15 K | 9.171 | –
20 K | 16.81 | –
25 K | 25 | –
30 K | 33.08 | –
35 K | 40.68 | –
40 K | 47.53 | –
45 K | 53.77 | –
50 K | 59.49 | –
60 K | 69.57 | –
70 K | 78.03 | –
80 K | 85.47 | –
80.24 K | 85.68 | –
83.06 K | 87.67 | –
85.79 K | 89.36 | –
88.55 K | 91.21 | –
90 K | 92.12 | –
91.34 K | 93.01 | –
94.15 K | 94.8 | –
96.98 K | 96.52 | –
99.83 K | 98.18 | –
100 K | 98.11 | –
102.69 K | 99.88 | –
105.57 K | 101.51 | –
108.46 K | 103.1 | –
110 K | 103.8 | –
111.37 K | 104.69 | –
114.29 K | 106.29 | –
117.22 K | 107.83 | –
120 K | 109.1 | –
120.16 K | 109.35 | –
123.11 K | 110.89 | –
126.08 K | 112.42 | –
129.06 K | 113.89 | –
130 K | 114.2 | –
132.03 K | 115.39 | –
135.01 K | 116.87 | –
138 K | 118.34 | –
140 K | 119.1 | –
140.99 K | 119.85 | –
143.99 K | 121.33 | –
146.99 K | 122.81 | –
149.99 K | 124.27 | –
150 K | 124.1 | –
152.99 K | 125.74 | –
156 K | 127.17 | –
159 K | 128.63 | –
160 K | 128.9 | –
162.08 K | 130.18 | –
165.15 K | 131.64 | –
168.15 K | 133.08 | –
170 K | 133.7 | –
171.16 K | 134.55 | –
174.16 K | 136.01 | –
177.16 K | 137.5 | –
180 K | 138.6 | –
180.15 K | 138.89 | –
183.15 K | 140.38 | –
186.14 K | 141.85 | –
189.13 K | 143.32 | –
190 K | 143.6 | –
192.12 K | 144.81 | –
195.1 K | 146.31 | –
198.07 K | 147.84 | –
200 K | 148.7 | –
201.05 K | 149.45 | –
204.01 K | 151.13 | –
206.98 K | 152.7 | –
209.94 K | 154.27 | –
210 K | 153.9 | –
212.9 K | 155.83 | –
215.85 K | 157.4 | –
218.78 K | 158.98 | –
220 K | 159.2 | –
221.71 K | 160.52 | –
224.63 K | 162.13 | –
227.55 K | 163.72 | –
230 K | 164.7 | –
230.45 K | 165.37 | –
233.35 K | 166.97 | –
236.24 K | 168.5 | –
239.13 K | 170.14 | –
240 K | 170.4 | –
242 K | 171.88 | –
244.87 K | 173.49 | –
247.74 K | 175.15 | –
250 K | 176.2 | –
250.59 K | 176.83 | –
253.44 K | 178.51 | –
256.25 K | 180.2 | –
259.07 K | 181.98 | –
260 K | 182.2 | –
261.87 K | 183.73 | –
264.68 K | 185.47 | –
267.47 K | 187.2 | –
270 K | 188.3 | –
270.26 K | 188.95 | –
273.03 K | 190.7 | –
275.79 K | 192.52 | –
278.53 K | 194.49 | –
280 K | 195.1 | –
281.26 K | 196.34 | –
283.96 K | 198.2 | –
286.66 K | 199.93 | –
289.36 K | 201.96 | –
290 K | 202 | –
292.03 K | 203.78 | –
294.7 K | 205.78 | –
297.36 K | 207.81 | –
298.15 K | 207.5 | –
299.92 K | 209.77 | –
300 K | 208.8 | –
310 K | 215.7 | –
320 K | 222.5 | –
330 K | 229.4 | –
340 K | 236.3 | –
347.66 K | – | 265.34
349.92 K | 243.1 | 264.8
350 K | – | 264.8
350.15 K | – | 266.1
352.61 K | – | 266.89
353.91 K | – | 267.52
355.07 K | – | 267.71
357.53 K | – | 268.53
359.99 K | – | 269.33
360 K | – | 268.6
361.35 K | – | 270.21
362.45 K | – | 270.78
364.95 K | – | 271.95
366.81 K | – | 270.88
367.5 K | – | 272.58
370 K | – | 272.4

Crystal
Conditions | molar heat capacity at constant pressure [J/K/mol]
5.194 K | 0.3611
5.579 K | 0.4605
5.885 K | 0.5503
6.228 K | 0.6668
6.606 K | 0.8178
6.985 K | 0.9897
7.365 K | 1.183
7.747 K | 1.406
8.13 K | 1.655
8.515 K | 1.937
8.9 K | 2.249
9.286 K | 2.597
9.673 K | 2.979
10.06 K | 3.401
10.55 K | 3.999
11.14 K | 4.807
11.73 K | 5.74
12.32 K | 6.81
12.91 K | 7.996
13.54 K | 8.107
14.21 K | 8.109
14.85 K | 8.978
15.58 K | 10.01
16.41 K | 11.22
17.25 K | 12.49
18.08 K | 13.77
18.92 K | 15.08
19.75 K | 16.41
20.88 K | 18.28
22.31 K | 20.62
23.74 K | 22.98
25.17 K | 25.34
26.6 K | 27.65
28.05 K | 30.01
29.5 K | 32.33
30.94 K | 34.65
32.4 K | 36.88
33.85 K | 39.07
35.31 K | 41.18
36.76 K | 43.24
38.22 K | 45.23
39.68 K | 47.2
41.38 K | 49.4
43.34 K | 51.87
45.31 K | 54.3
47.28 K | 56.63
49.24 K | 58.85
51.21 K | 60.97
53.18 K | 63
55.14 K | 65
57.11 K | 66.93
59.08 K | 68.82
61.05 K | 70.7
63.03 K | 72.54
65 K | 74.25
66.98 K | 75.86
68.96 K | 77.42
70.95 K | 78.97
72.93 K | 80.48
74.92 K | 82.06
76.91 K | 83.6
78.9 K | 85.15
80.9 K | 86.6
82.91 K | 87.82
